Results published in PubChem BioAssay AID1918994 (Molecular Pharmacology Branch, DTP, NCI, 2023).
Values joined by “and” are separate entries in the source; they are usually repeats but may differ in a detail not shown here. Identical values can stand only once.

test system: 292921-168-R-J2-PDC complex spheroid growth; experiment: Anticancer human tumor 292921-168-R-J2-PDC patient-derived pancreatic carcinoma cell line growth inhibition [AhR]; conditions: compound 0.000316 µM; stronger effect = lower value
Description: Multicellular complex tumor spheroid response to aryl hydrocarbon receptor antagonists in combination with a variety of drugs and investigational agents in selected tumor cell lines
The current study was undertaken to assess response to aryl hydrocarbon receptor antagonists in combination with standard-of-care drugs and investigational agents in solid tumor complex spheroid models. Complex spheroids include a stromal component modeled by human endothelial cells (HUVEC) and fibroblasts modeled by human mesenchymal stem cells (MSCs). The concentration ranges selected for each drug and investigational agent were based upon clinically achievable concentrations if the clinical Cmax of the agent was known.
Compounds. The drugs and investigational agents: BAY 2416964 (NSC825713), GNF351 (NSC835774), CH-223191 (NSC835775), CPI-455 (NSC825282), aza-TdCyd (NSC777586), decitabine (NSC127716), belinostat (NSC758774), entinostat (NSC756642), pevonedistat (NSC761192), tazemetostat (NSC777109), talazoparib (NSC765396), olaparib (NSC753686), selinexor (NSC780203), nedisertib (M3814, NSC802822), bortezomib (NSC756655), venetoclax (NSC766270), doxorubicin (NSC123127), elimusertib (BAY189344, NSC800525), ceralasertib (AZD6738, NSC777638), TAK-243 (NSC785004), alisertib (NSC759677), etoposide (NSC141540), topotecan (NSC609699), eribulin (NSC707389), gemcitabine (NSC613327), carboplatin (NSC241240), cisplatin (NSC119875), and SN-38 (NSC673596) were obtained from the National Cancer Institute (NCI) Developmental Therapeutics Program Chemical Repository (32). The FDA-approved anticancer drug set is available from the Developmental Therapeutics Program at https://dtp.cancer.gov/organization/dscb/obtaining/available plates.htm. […] The stock solutions were prepared in dimethyl sulfoxide (DMSO, Sigma-Aldrich, St. Louis, MO, cat. D2650), except for the platinum compounds which were prepared in saline (Quality Biological, Gaithersburg, MD, cat. 114-055-101), at 800-fold the tested concentration and stored at -70 degrees C prior to their use. All drugs and investigational agents were tested over a range starting from a high concentration at or near the clinical Cmax and decreasing in half-log increments. If the clinical Cmax for an agent had not been determined, the highest concentration tested was 10 microM (Table 1).
Cell Culture. All cells were maintained in an incubator at 37 degrees C and 5% CO2 with 95% humidity. The PDC lines were cultured according to standard operating procedures established by the NCI PDMR (https://pdmr.cancer.gov). Briefly, all PDCs were thawed and cultured in Matrigel-coated flasks prepared with a working solution of 1X Ham's F-12 nutrient mix, without supplementation (Invitrogen, Waltham, MA, cat. 11765054), 100 U/mL penicillin-streptomycin (Invitrogen, cat. 15140122), and 2.5% Matrigel (Corning Inc., Corning, NY, cat. 354248) for the first three passages. All PDCs were cultured in complete DMEM/F-12 media containing advanced DMEM/F-12 (Invitrogen, cat. 12634028), 4.9% defined fetal bovine serum, heat inactivated (HyClone Laboratories Inc., Logan, UT, cat. SH30070.03HI), 389 ng/mL hydrocortisone (Sigma-Aldrich, cat. H4001), 9.7 ng/mL human EGF recombinant protein (Invitrogen, cat. PHG0313), 23.4 microg/mL adenine (Sigma-Aldrich, cat. A2786), 97.3 U/mL penicillin-streptomycin (Invitrogen, cat. 15140122), 1.9 mM L-glutamine (Invitrogen, cat. 25030081), and 9.7 microM Y-27632 dihydrochloride (Tocris Bioscience, Bristol, United Kingdom, cat. 1254). The PDCs were cultured in complete DMEM/F12 media without 10 microM Y-27632 dihydrochloride for at least two passages prior to the screen. The established cell lines NCI-H1341 and […] were cultured in DMEM/F-12, HEPES (Invitrogen, cat. 11330032), 5% defined fetal bovine serum (HyClone Laboratories Inc., cat. SH30070.03), ITS premix universal culture supplement [insulin (5 microg/mL), transferrin (5 microg/mL), and selenious acid (5 ng/mL)] […]
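Also: spheroids exposed to compounds for seven days after three days of growth.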

Row | SMILES | viability, T/C
1 | CC[C@@]1(O)C(=O)OCc2c1cc1n(c2=O)Cc2cc3c(CN(C)C)c(O)ccc3nc2-1 | 110% and 102% and 99.3%
2 | Cn1ncnc1C1c2n[nH]c(=O)c3cc(F)cc(c23)NC1c1ccc(F)cc1 (centres undefined) | 101% and 103% and 106%

same assay, conditions: compound 0.000949 µM; stronger effect = lower value

Row | SMILES | viability, T/C
3 | CC(C)CC(NC(=O)C(Cc1ccccc1)NC(=O)c1cnccn1)B(O)O (centres undefined) | 106% and 109% and 104%
4 | CCc1c2c(nc3ccc(O)cc13)-c1cc3c(c(=O)n1C2)COC(=O)[C@]3(O)CC | 72.1% and 79.3% and 54.5%
5 | Nc1ncn(C2CC(O)C(CO)S2)c(=O)n1 (centres undefined) | 108% and 106% and 99.4%

same assay, conditions: compound 0.001 µM; stronger effect = lower value

Row | SMILES | viability, T/C
6 | CC[C@@]1(O)C(=O)OCc2c1cc1n(c2=O)Cc2cc3c(CN(C)C)c(O)ccc3nc2-1 | 103% and 107% and 96.5%
7 | Cn1ncnc1C1c2n[nH]c(=O)c3cc(F)cc(c23)NC1c1ccc(F)cc1 (centres undefined) | 103% and 111% and 95.4%

same assay, conditions: compound 0.003 µM; stronger effect = lower value

Row | SMILES | viability, T/C
8 | CC(C)CC(NC(=O)C(Cc1ccccc1)NC(=O)c1cnccn1)B(O)O (centres undefined) | 116% and 121% and 106%
9 | CCc1c2c(nc3ccc(O)cc13)-c1cc3c(c(=O)n1C2)COC(=O)[C@]3(O)CC | 53.6% and 63.4% and 47.4%
10 | Nc1ncn(C2CC(O)C(CO)S2)c(=O)n1 (centres undefined) | 111% and 90.8% and 101%

same assay, conditions: compound 0.00316 µM; stronger effect = lower value

Row | SMILES | viability, T/C
11 | CC1COCCN1c1cc(-c2ccnn2C)c2ccnc(-c3ccn[nH]3)c2n1 (centres undefined) | 99.6% and 103% and 96.5%
12 | CC[C@@]1(O)C(=O)OCc2c1cc1n(c2=O)Cc2cc3c(CN(C)C)c(O)ccc3nc2-1 | 94.2% and 93.7% and 90.6%
13 | Cn1ncnc1C1c2n[nH]c(=O)c3cc(F)cc(c23)NC1c1ccc(F)cc1 (centres undefined) | 96.3% and 91.7% and 97.4%
14 | Nc1ncn(C2CC(O)C(CO)O2)c(=O)n1 (centres undefined) | 107% and 102% and 96.8%

same assay, conditions: compound 0.00949 µM; stronger effect = lower value

Row | SMILES | viability, T/C
15 | CC(C)CC(NC(=O)C(Cc1ccccc1)NC(=O)c1cnccn1)B(O)O (centres undefined) | 53.1% and 25.4% and 12.2%
16 | CCN(c1cc(-c2ccc(CN3CCOCC3)cc2)cc(C(=O)NCc2c(C)cc(C)[nH]c2=O)c1C)C1CCOCC1 | 98.8% and 103% and 105%
17 | CCc1c2c(nc3ccc(O)cc13)-c1cc3c(c(=O)n1C2)COC(=O)[C@]3(O)CC | 25.5% and 20.2% and 23.6%
18 | Nc1ncn(C2CC(O)C(CO)S2)c(=O)n1 (centres undefined) | 107% and 98.6% and 93.5%
19 | O=C(C=Cn1cnc(-c2cc(C(F)(F)F)cc(C(F)(F)F)c2)n1)NNc1cnccn1 | 104% and 95% and 86.6%

same assay, conditions: compound 0.01 µM; stronger effect = lower value

Row | SMILES | viability, T/C
20 | CC1COCCN1c1cc(-c2ccnn2C)c2ccnc(-c3ccn[nH]3)c2n1 (centres undefined) | 90.4% and 97.9% and 92.8%
21 | CC[C@@]1(O)C(=O)OCc2c1cc1n(c2=O)Cc2cc3c(CN(C)C)c(O)ccc3nc2-1 | 83.7% and 86.5% and 77.4%
22 | Cn1ncnc1C1c2n[nH]c(=O)c3cc(F)cc(c23)NC1c1ccc(F)cc1 (centres undefined) | 96.2% and 96.3% and 97.7%
23 | Nc1ncn(C2CC(O)C(CO)O2)c(=O)n1 (centres undefined) | 99.8% and 97.5% and 103%

same assay, conditions: compound 0.03 µM; stronger effect = lower value

Row | SMILES | viability, T/C
24 | CC(C)CC(NC(=O)C(Cc1ccccc1)NC(=O)c1cnccn1)B(O)O (centres undefined) | 3.87% and 2.27% and 1.64%
25 | CCN(c1cc(-c2ccc(CN3CCOCC3)cc2)cc(C(=O)NCc2c(C)cc(C)[nH]c2=O)c1C)C1CCOCC1 | 106% and 107% and 104%
26 | CCc1c2c(nc3ccc(O)cc13)-c1cc3c(c(=O)n1C2)COC(=O)[C@]3(O)CC | 12.2% and 9.77% and 13%
27 | Nc1ncn(C2CC(O)C(CO)S2)c(=O)n1 (centres undefined) | 90.9% and 104% and 96.8%
28 | O=C(C=Cn1cnc(-c2cc(C(F)(F)F)cc(C(F)(F)F)c2)n1)NNc1cnccn1 | 97.2% and 93% and 80.9%

same assay, conditions: compound 0.0316 µM; stronger effect = lower value

Row | SMILES | viability, T/C
29 | CC(C)c1c(-c2ccccc2)nc2c(C#N)c[nH]n2c1=O | 113% and 103% (2×)
30 | CC1(C)CCC(CN2CCN(c3ccc(C(=O)NS(=O)(=O)c4ccc(NCC5CCOCC5)c([N+](=O)[O-])c4)c(Oc4cnc5[nH]ccc5c4)c3)CC2)=C(c2ccc(Cl)cc2)C1 | 104% and 92.6% and 102%
31 | CC1COCCN1c1cc(-c2ccnn2C)c2ccnc(-c3ccn[nH]3)c2n1 (centres undefined) | 65.1% and 66.1% and 56.9%
32 | CC1COCCN1c1cc(C2(S(C)(=N)=O)CC2)nc(-c2ccnc3[nH]ccc23)n1 (centres undefined) | 98% and 110% (2×)
33 | CC[C@@]1(O)C(=O)OCc2c1cc1n(c2=O)Cc2cc3c(CN(C)C)c(O)ccc3nc2-1 | 59.3% and 48.2% and 41.8%
34 | COc1cc(C2c3cc4c(cc3C(OC3OC5COC(C)OC5C(O)C3O)C3COC(=O)C23)OCO4)cc(OC)c1O (centres undefined) | 96% and 96.6% and 96.5%
35 | COc1cc(Nc2ncc3c(n2)-c2ccc(Cl)cc2C(c2c(F)cccc2OC)=NC3)ccc1C(=O)O | 53.9% and 45.2% and 56.9%
36 | COc1ccc([C@@H](O)c2cc(-c3ncnc4cc(N5CCOCC5)ccc34)c(F)cc2Cl)nn1 | 92.7% and 96.3% and 98.8%
37 | COc1cccc2c1C(=O)c1c(O)c3c(c(O)c1C2=O)CC(O)(C(=O)CO)CC3OC1CC(N)C(O)C(C)O1 (centres undefined) | 37.4% and 25.9% and 34.4%
38 | Cn1ncnc1C1c2n[nH]c(=O)c3cc(F)cc(c23)NC1c1ccc(F)cc1 (centres undefined) | 88% and 97.5% and 90.3%
39 | NS(=O)(=O)OCC1CC(n2ccc3c(NC4CCc5ccccc54)ncnc32)CC1O (centres undefined) | 126% and 115% and 113%
